Results: ChEMBL document CHEMBL4513149, “CO-ADD screening of MMV (CH) - MMV compounds” (2021)

Legend:
Staphylococcus aureus = conditions: ASSAY_TEST Inhibition of Bacterial Growth; detection method Absorption (OD600); MEDIA CAMHB; plate type 384well; NBS; CORNING #3640; time 18 hr
Description: Antibacterial activity against Staphylococcus aureus MRSA ATCC 43300 (CO-ADD:GP_020); MIC in CAMBH media, using NBS plates, by OD(600)

Pseudomonas aeruginosa = conditions: ASSAY_TEST Inhibition of Bacterial Growth; detection method Absorption (OD600); MEDIA CAMHB; plate type 384well; NBS; CORNING #3640; time 18 hr
Description: Antibacterial activity against Pseudomonas aeruginosa ATCC 27853 (CO-ADD:GN_042); MIC in CAMBH media using NBS plates, by OD(600)

Acinetobacter baumannii = conditions: ASSAY_TEST Inhibition of Bacterial Growth; detection method Absorption (OD600); MEDIA CAMHB; plate type 384well; NBS; CORNING #3640; time 18 hr
Description: Antibacterial activity against Acinetobacter baumannii ATCC 19606 (CO-ADD:GN_034); MIC in CAMBH media using NBS plates, by OD600

Escherichia coli = conditions: ASSAY_TEST Inhibition of Bacterial Growth; detection method Absorption (OD600); MEDIA CAMHB; plate type 384well; NBS; CORNING #3640; time 18 hr
Description: Antibacterial activity against Escherichia coli ATCC 25922 (CO-ADD:GN_001); MIC in CAMBH media using NBS plates, by OD(600)

HEK293 = assay: cells; type: functional; conditions: Homo sapiens, ATCC CRL1573, HEK293; ASSAY_TEST Inhibition of Cell Viability; detection method Resazurin; Fluorescence (ex560/em590); MEDIA DMEM with 10% FBS; plate type 384well; TC; CORNING #3712; time 18 hr
Klebsiella pneumoniae = conditions: ASSAY_TEST Inhibition of Bacterial Growth; detection method Absorption (OD600); MEDIA CAMHB; plate type 384well; NBS; CORNING #3640; time 18 hr
Description: Antibacterial activity against Klebsiella pneumoniae MDR ATCC 70063 (CO-ADD:GN_003); MIC in CAMBH media using NBS plates, by OD(600)

Candida albicans = conditions: ASSAY_TEST Inhibition of Fungal Growth; detection method Absorption (OD530); plate type 384well; NBS; CORNING #3640
Description: Antifungal activity against Candida albicans ATCC 90028 (CO-ADD:FG_001); MIC in YNB media using NBS plates, by OD630

Description for Cryptococcus neoformans: Antifungal activity against Cryptococcus neoformans H99 ATCC 208821 (CO-ADD:FG_002); MIC in YNB media using NBS plates, by Resazurin OD(600-570)

| MIC (Staphylococcus aureus) | MIC (Pseudomonas aeruginosa) | MIC (Cryptococcus neoformans) | MIC (Acinetobacter baumannii) | MIC (Escherichia coli) | MIC (Klebsiella pneumoniae) | MIC (Candida albicans) | Structure (SMILES) | CC50 (HEK293) |
| --- | --- | --- | --- | --- | --- | --- | --- | --- |
| 0.625 µM | 0.625 µM | > 10 µM | 2.5 µM | <=0.0781 uM | 2.5 µM | >10 µM | C[C@H]1COc2c(N3CCN(C)CC3)c(F)cc3c(=O)c(C(=O)O)cn1c23.C[C@H]1COc2c(N3CCN(C)CC3)c(F)cc3c(=O)c(C(=O)O)cn1c23.O [LEVOFLOXACIN] | > 10 µM |
| 10 µM | >10 µM | > 10 µM | >10 µM | >10 µM | >10 µM | >10 µM | COc1cc(NC(C)CCCN)c2ncccc2c1.O=P(O)(O)O.O=P(O)(O)O (stereo unspecified) [PRIMAQUINE PHOSPHATE] | > 10 µM |
